In US9975854B2, “Benzomorphan analogs and use thereof” (Purdue Pharma L.P., priority 2014, dated 2018):
Like-named read-outs stand apart in the source and are kept apart here.

Molecular target: μ-opioid receptor (Homo sapiens (Human), UniProt P35372)
Assay: μ-opioid receptor [35S]GTPγS functional assay, HEK-293 or CHO cells
Type: biochemical
Settings: for Emax: relative to DAMGO
Method: [^35S]GTPγS functional assays were conducted using freshly thawed μ-receptor membranes prepared in-house from a cell line expressing recombinant opioid receptor in a HEK-293, CHO or U-2 OS cell background, or purchased from a commercial source (Perkin Elmer, Shelton, Conn.; or DiscovRx, Fremont, Calif.). Assay reactions were prepared by sequentially adding the following reagents to binding buffer (100 mM NaCl, 10 mM MgCl2, 20 mM HEPES, pH 7.4) on ice (final concentrations indicated): membrane protein (0.026 mg/mL), saponin ([…]), GDP ([…]) and [^35S]GTPγS (0.20 nM; Perkin Elmer, Shelton, Conn.). The prepared membrane solution (190 μl/well) was transferred to 96-shallow well polypropylene plates containing 10 μl of 20× concentrated stock solutions of the agonist [D-Ala^2, N-methyl-Phe^4 Gly-ol^5]-enkephalin (DAMGO) prepared in dimethyl sulfoxide (DMSO). Plates were incubated for 30 min at about 25° C. with shaking. Reactions were terminated by rapid filtration onto 96-well Unifilter GF/B filter plates (Perkin Elmer, Shelton, Conn.) using a 96-well tissue harvester (Perkin Elmer, Shelton, Conn.) followed by three filtration washes with 200 μl of ice-cold wash buffer (10 mM NaH2PO4, 10 mM Na2HPO4, pH 7.4). Filter plates were subsequently dried at 50° C. for 2-3 hr. BetaScint scintillation cocktail (Perkin Elmer, Shelton, Conn.) was added (50 μl/well) and plates were counted using a Packard Top-Count for 1 min/well. Data were analyzed using the sigmoidal dose-response curve fitting functions in GraphPad PRISM v. 3.0, or an in-house function for non-linear, sigmoidal dose-response curve-fitting.
μ GTP EC50 is the concentration of a compound providing 50% of the maximal response for the compound at a μ-opioid receptor.
μ GTP Emax (%) is the maximal effect elicited by a compound relative to the effect elicited by DAMGO, a standard p agonist. Generally, the μ GTP Emax (%) value measures the efficacy of a compound to treat or prevent pain or other Conditions.
In TABLE 4, activity response of certain Compounds of the Invention to the μ- and κ-opioid receptors was determined as described above for functional assays using HEK-293 or CHO cells.

[1] = HEK-293 or CHO cells, read-out: GTPγS μ EC50
[2] = HEK-293 or CHO cells, bound given in uM, read-out: GTPγS μ EC50

SMILES	EC50 [1]	Emax (HEK-293 or CHO cells)	EC50 [2]	EC50
CN1CC[C@@]2(C)c3cc(C(N)=O)ccc3C[C@@H]1[C@@H]2N(C)CCc1ccccc1 [Compound 123, (2R,6S,11R)-3,6-dimethyl-11-(methyl(phenethyl)amino)-1,2,3,4,5,6-hexahydro-2,6-methanobenzo[d]azocine-8-carboxamide]	0.0233 ± 0.00447 µM	97.4 ± 0.2%	–	–
CN1CC[C@@]2(C)c3cc(O)ccc3C[C@@H]1[C@@H]2NCc1ccccc1 [Compound 108, (2R,6S,11R)-11-(benzylamino)-3,6-dimethyl-1,2,3,4,5,6-hexahydro-2,6-methanobenzo[d]azocin-8-ol]	11.7 ± 3.29 µM	17.1 ± 0.67%	–	–
CN1CC[C@@]2(C)c3cc(O)ccc3C[C@@H]1[C@@H]2N(CCc1ccc(F)cc1)CC(N)=O [Compound 74, 2-((4-fluorophenethyl)-((2R,6S,11R)-8-hydroxy-3,6-dimethyl-1,2,3,4,5,6-hexahydro-2,6-methanobenzo[d]azocin-11-yl)amino)acetamide]	0.00112 ± 0.00017 µM	83.2 ± 3.47%	–	–
CN1CC[C@@]2(C)c3cc(O)ccc3C[C@@H]1[C@H]2N(CCc1ccc(F)cc1)CC(=O)O [Compound 72, N-(4-fluorophenethyl)-N-((2R,6S,11S)-8-hydroxy-3,6-dimethyl-1,2,3,4,5,6-hexahydro-2,6-methanobenzo[d]azocin-11-yl)glycine]	0.338 ± 0.0609 µM	101 ± 2.91%	–	–
CN(CC1CCN(S(=O)(=O)Cc2ccccc2)CC1)C1[C@H]2Cc3ccc(O)cc3C1(C)CCN2C (stereo in doubt) [Compound 58, (2R,6S,11S)-11-(((1-(benzylsulfonyl)piperidin-4-yl)methyl)(methyl)amino)-3,6-dimethyl-1,2,3,4,5,6-hexahydro-2,6-methanobenzo[d]azocin-8-ol]	0.0132 ± 0.00071 µM	58 ± 7.55%	–	–
COc1ccc2c(c1)[C@]1(C)CCN(C)[C@H](C2)[C@@H]1N(C)C(=O)CN1CCNC(=O)C1 [Compound 44, N-((2R,6S,11R)-8-methoxy-3,6-dimethyl-1,2,3,4,5,6-hexahydro-2,6-methanobenzo[d]azocin-11-yl)-N-methyl-2-(3-oxopiperazin-1-yl)acetamide]	–	43 ± 2.52%	> 20 µM	–
CCCN(C(=O)Nc1ccc(C#N)cc1)[C@H]1[C@H]2Cc3ccc(O)cc3[C@]1(C)CCN2C [Compound 92, 3-(4-cyanophenyl)-1-((2R,6S,11R)-8-hydroxy-3,6-dimethyl-1,2,3,4,5,6-hexahydro-2,6-methanobenzo[d]azocin-11-yl)-1-propylurea]	0.0964 ± 0.00352 µM	43.8 ± 1.03%	–	–
CN1CC[C@@]2(C)c3cc(C#N)ccc3C[C@@H]1C2(O)O [Compound 116, (2R,6S)-11,11-dihydroxy-3,6-dimethyl-1,2,3,4,5,6-hexahydro-2,6-methanobenzo[d]azocine-8-carbonitrile]	–	0%	–	> 20 µM
CN1CC[C@@]2(C)c3cc(C(=O)O)ccc3C[C@@H]1[C@@H]2NCCc1ccc(S(C)(=O)=O)cc1 [Compound 126, (2R,6S,11R)-3,6-dimethyl-11-((4-(methylsulfonyl)phenethyl)amino)-1,2,3,4,5,6-hexahydro-2,6-methanobenzo[d]azocine-8-carboxylic acid]	–	18.4 ± 0.3%	> 20 µM	–
CCn1c(NC(=O)N(C)[C@H]2[C@H]3Cc4ccc(O)cc4[C@]2(C)CCN3C)nc2ccccc21 [Compound 112, 3-(1-ethyl-1H-benzo[d]imidazol-2-yl)-1-((2R,6S,11R)-8-hydroxy-3,6-dimethyl-1,2,3,4,5,6-hexahydro-2,6-methanobenzo[d]azocin-11-yl)-1-methylurea]	0.0141 ± 0.00052 µM	84.2 ± 0.94%	–	–
CN1CC[C@@]2(C)c3cc(C(N)=O)ccc3C[C@@H]1[C@@H]2NCCc1ccccc1 [Compound 114, (2R,6S,11R)-3,6-dimethyl-11-(phenethylamino)-1,2,3,4,5,6-hexahydro-2,6-methanobenzo[d]azocine-8-carboxamide]	8.62 ± 0.751 µM	71 ± 2.18%	–	–
CN1CC[C@@]2(C)c3cc(O)ccc3C[C@@H]1[C@@H]2N(C)CC1CCN(S(C)(=O)=O)CC1 [Compound 54, (2R,6S,11R)-3,6-dimethyl-11-(methyl((1-(methylsulfonyl)piperidin-4-yl)methyl)amino)-1,2,3,4,5,6-hexahydro-2,6-methanobenzo[d]azocin-8-ol]	0.00544 ± 0.00235 µM	74 ± 3.15%	–	–
CN1CCC2(C)c3cc(O)ccc3C[C@@H]1C2NC(=O)Cc1ccsc1 (stereo in doubt) [Compound 31, N-((2R,6S,11S)-8-hydroxy-3,6-dimethyl-1,2,3,4,5,6-hexahydro-2,6-methanobenzo[d]azocin-11-yl)-2-(thiophen-3-yl)acetamide]	–	1%	> 20 µM	–
CN1CC[C@@]2(C)c3cc(O)ccc3C[C@@H]1[C@H]2NC(=O)Nc1nc2cc(F)ccc2s1 [Compound 122, 1-(5-Fluorobenzo[d]thiazol-2-yl)-3-((2R,6S,11S)-8-hydroxy-3,6-dimethyl-1,2,3,4,5,6-hexahydro-2,6-methanobenzo[d]azocin-11-yl)urea]	0.375 ± 0.106 µM	13.6 ± 1.14%	–	–
CN1CC[C@@]2(C)c3cc(O)ccc3C[C@@H]1[C@@H]2N(CCc1ccc(F)cc1)CC(=O)O [Compound 73, N-(4-fluorophenethyl)-N-((2R,6S,11R)-8-hydroxy-3,6-dimethyl-1,2,3,4,5,6-hexahydro-2,6-methanobenzo[d]azocin-11-yl)glycine]	0.0572 ± 0.0127 µM	68.8 ± 1.77%	–	–
CC(C)CS(=O)(=O)N1CCC(CN(C)C2[C@H]3Cc4ccc(O)cc4C2(C)CCN3C)CC1 (stereo in doubt) [Compound 59, (2R,6S,11S)-11-(((1-(isobutylsulfonyl)piperidin-4-yl)methyl)(methyl)amino)-3,6-dimethyl-1,2,3,4,5,6-hexahydro-2,6-methanobenzo[d]azocin-8-ol]	0.0528 ± 0.005 µM	27 ± 1.53%	–	–
COc1ccc2c(c1)[C@]1(C)CCN(C)[C@H](C2)[C@@H]1N(C)C(=O)Nc1nc2ccccc2[nH]1 [Compound 111, 3-(1H-benzo[d]imidazol-2-yl)-1-((2R,6S,11R)-8-methoxy-3,6-dimethyl-1,2,3,4,5,6-hexahydro-2,6-methanobenzo[d]azocin-11-yl)-1-methylurea]	0.79 ± 0.0985 µM	67.4 ± 3.48%	–	–
CN1CC[C@@]2(C)c3cc(O)ccc3C[C@@H]1[C@@H]2NCCCCNC(=O)OC(C)(C)C [Compound 18, Tert-butyl (4-(((2R,6S,11R)-8-hydroxy-3,6-dimethyl-1,2,3,4,5,6-hexahydro-2,6-methanobenzo[d]azocin-11-yl)amino)butyl)carbamate]	0.124 ± 0.0183 µM	48.4 ± 3.28%	–	–
CN1CC[C@@]2(C)c3cc(O)ccc3C[C@@H]1[C@H]2NCCCc1ccccc1 [Compound 109, (2R,6S,11S)-3,6-dimethyl-11-((3-phenylpropyl)amino)-1,2,3,4,5,6-hexahydro-2,6-methanobenzo-[d]azocin-8-ol]	0.649 ± 0.114 µM	59.6 ± 2.5%	–	–
CN1CC[C@@]2(C)c3cc(O)ccc3C[C@@H]1[C@@H]2NC(=O)Nc1ccc(C#N)cc1 [Compound 27, 1-(4-Cyanophenyl)-3-((2R,6S,11R)-8-hydroxy-3,6-dimethyl-1,2,3,4,5,6-hexahydro-2,6-methanobenzo[d]azocin-11-yl)urea]	–	0%	> 20 µM	–
CN1CC[C@@]2(C)c3cc(O)ccc3C[C@@H]1[C@@H]2N(C)CC1CCN(C(=O)C(C)(C)C)CC1 [Compound 52, 1-(4-((((2R,6S,11R)-8-hydroxy-3,6-dimethyl-1,2,3,4,5,6-hexahydro-2,6-methanobenzo[d]azocin-11-yl)(methyl)amino)methyl)piperidin-1-yl)-2,2-dimethylpropan-1-one]	0.00122 ± 0.0002 µM	31.3 ± 0.88%	–	–
CN1CC[C@@]2(C)c3cc(C(N)=O)ccc3C[C@@H]1[C@@H]2N(C)C(=O)Cc1ccccc1 [Compound 124, (2R,6S,11R)-3,6-dimethyl-11-(N-methyl-2-phenylacetamido)-1,2,3,4,5,6-hexahydro-2,6-methanobenzo[d]azocine-8-carboxamide]	3.54 ± 0.48 µM	81.6 ± 3.37%	–	–
CN1CC[C@@]2(C)c3cc(O)ccc3C[C@@H]1[C@@H]2N(C)CC1CCN(S(=O)(=O)C2CC2)CC1 [Compound 57, (2R,6S,11R)-11-(((1-(cyclopropylsulfonyl)piperidin-4-yl)methyl)(methyl)amino)-3,6-dimethyl-1,2,3,4,5,6-hexahydro-2,6-methanobenzo[d]azocin-8-ol]	0.0905 ± 0.0181 µM	43 ± 1.53%	–	–
CN1CC[C@@]2(C)c3cc(O)ccc3C[C@@H]1[C@@H]2N(C)CC1CCN(C(=O)NC(C)(C)C)CC1 [Compound 95, N-(tert-butyl)-4-((((2R,6S,11R)-8-hydroxy-3,6-dimethyl-1,2,3,4,5,6-hexahydro-2,6-methanobenzo[d]azocin-11-yl)(methyl)amino)methyl)piperidine-1-carboxamide]	0.008 ± 0.00164 µM	17.7 ± 2.6%	–	–
